Data on ten compounds can be found in patent US10106553B2, “Substituted benzothiophenyl derivatives as GPR40 agonists for the treatment of type II diabetes” (Janssen Pharmaceutica NV, priority 2016, dated 2018).

By EC50 is commonly meant the concentration at which the effect is half-maximal.

One assay has as its system Male SD rats. Kind of assay: Oral Glucose Tolerance Test. To be noted: 10 mg/kg po 30-40 min prior to oGTT (glucose 2 g/kg po), blood glucose AUC t=0 to t=120 min. The class given is in vivo, rat. Here is the method: Male SD rats (200-250 g) were housed 2 per cage in a temperature-controlled room with a 12-hour light/dark cycle. They were allowed ad libitum access to water and fed with normal rodent chow. The night before the oral glucose tolerance test (oGTT), the rats were transferred to clean cages and fasted overnight. On the morning of the oGTT, the rats were weighed and randomized into groups based on fasted blood glucose and body weight. Rats were dosed with vehicle (0.5% methocel) or compounds (10 mg/kg, po) thirty to forty min prior to the oGTT (glucose, 2 g/kg, po). Blood was collected from the tail vein at 0, 10, 30, 60 and 120 minutes after glucose challenge to measure blood glucose; plasma was used to determine insulin levels. The area under the curve for blood glucose excursion was calculated from t=0 to t=120 minutes. Percent lowering of glucose was calculated from the AUC data with respect to the vehicle-treated group.
Take `CC#C[C@@H](Cc1nnn[nH]1)c1ccc(OCc2ccc3scc(-c4ccccc4C)c3c2)cc1` [Cpd 1, (2S)-5-(2-(4-((3-(2-Methylphenyl)benzo[b]thiophen-5-yl)methoxy)phenyl)pent-3-yn-1-yl)-1H-tetrazole]: the “Percent Lowering of Glucose (AUC compound vs. AUC Vehicle)” value (“Percent Lowering of Glucose” below) stood at 81%.
Regarding `CC#C[C@@H](Cc1nnn[nH]1)c1ccc(OCc2ccc3scc(-c4ccc(OCC5(C)CS(=O)(=O)C5)cc4C)c3c2)cc1` [Cpd 12, (2S)-3-((4-(5-((4-(1-(1H-Tetrazol-5-yl)pent-3-yn-2-yl)phenoxy)methyl)benzo[b]thiophen-3-yl)-3-methylphenoxy)methyl)-3-methylthietane 1,1-dioxide], the “Percent Lowering of Glucose” value came to 101%.
`CC#C[C@@H](Cc1nnn[nH]1)c1ccc(OCc2ccc3scc(-c4ccc(OCCCS(C)(=O)=O)cc4C)c3c2)cc1` [Cpd 16, (2S)-5-(2-(4-((3-(2-Methyl-4-(3-(methylsulfonyl)propoxy)phenyl)benzo[b]thiophen-5-yl)methoxy)phenyl)pent-3-yn-1-yl)-1H-tetrazole]: the “Percent Lowering of Glucose” value is listed as 105%.
For the compound `CC#C[C@@H](Cc1nnn[nH]1)c1ccc(OCc2ccc3sc(F)c(-c4ccc(OCCOC)cc4C)c3c2)cc1` [Cpd 44, (2S)-5-(2-(4-((2-Fluoro-3-(4-(2-methoxyethoxy)-2-methylphenyl)benzo[b]thiophen-5-yl)methoxy)phenyl)pent-3-yn-1-yl)-1H-tetrazole], the “Percent Lowering of Glucose” value came to 91%.
The same measure, in the same setting: to `CC#C[C@@H](Cc1nnn[nH]1)c1ccc(OCc2ccc3sc(C(F)(F)F)c(-c4ccc(OCCOC)cc4C)c3c2)cc1` [Cpd 47, 5-((2S)-2-(4-((3-(4-(2-Methoxyethoxy)-2-methylphenyl)-2-(trifluoromethyl)benzo[b]thiophen-5-yl)methoxy)phenyl)pent-3-yn-1-yl)-1H-tetrazole] belongs 91%.

The target of another assay is human GPR40 (Homo sapiens (Human), UniProt O14842). Kind of assay: GPR40 Calcium Flux Assay.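 Note: calcium flux followed with the Fluo-8 fluorescent dye, intensity read each second over 8 min as compounds were added to the cells.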 The assay is classed as cell-based. To be noted: transfected HEK293 cells stably expressing human GPR40; Ca2+ mobilization; mean data; read-out: hGPR40 Ca^2+ Assay EC50.
Chain of human GPR40 (O14842 whole entry): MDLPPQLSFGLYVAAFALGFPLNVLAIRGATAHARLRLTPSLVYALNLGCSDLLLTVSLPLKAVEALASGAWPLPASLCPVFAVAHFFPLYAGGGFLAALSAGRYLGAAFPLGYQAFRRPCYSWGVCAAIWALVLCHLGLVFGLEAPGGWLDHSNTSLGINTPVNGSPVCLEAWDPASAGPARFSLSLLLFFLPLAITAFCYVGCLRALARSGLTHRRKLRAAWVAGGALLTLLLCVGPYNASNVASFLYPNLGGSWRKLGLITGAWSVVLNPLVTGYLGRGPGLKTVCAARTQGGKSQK
`CC#C[C@@H](Cc1nnn[nH]1)c1ccc(OCc2ccc3scc(CCC)c3c2)cc1` [Cpd 59, (2S)-5-(2-(4-((3-Propylbenzo[b]thiophen-5-yl)methoxy)phenyl)pent-3-yn-1-yl)-1H-tetrazole]: the EC50 turned out to be 130 nM.
For `CC#C[C@@H](Cc1nnn[nH]1)c1ccc(OCc2ccc3sccc3c2)cc1` [Cpd 60, (2S)-5-(2-(4-(Benzo[b]thiophen-5-ylmethoxy)phenyl)pent-3-yn-1-yl)-1H-tetrazole], the EC50 was 110 nM.
In the case of `CC#C[C@@H](Cc1nnn[nH]1)c1ccc(OCc2cc(C)c3scc(CCCC)c3c2)cc1` [Cpd 64, (2S)-5-(2-(4-((3-Butyl-7-methylbenzo[b]thiophen-5-yl)methoxy)phenyl)pent-3-yn-1-yl)-1H-tetrazole], the EC50 came to 330 nM.
Regarding `CC#C[C@@H](Cc1nnn[nH]1)c1ccc(OCc2cc(C)c3scc(C4CCCC4)c3c2)cc1` [Cpd 65, (2S)-5-(2-(4-((3-Cyclopentyl-7-methylbenzo[b]thiophen-5-yl)methoxy)phenyl)pent-3-yn-1-yl)-1H-tetrazole], the EC50 stood at 440 nM.
Take `CC#C[C@@H](Cc1nnn[nH]1)c1ccc(OCc2cc(C)c3scc(C4CCCCC4)c3c2)cc1` [Cpd 66, (2S)-5-(2-(4-((3-Cyclohexyl-7-methylbenzo[b]thiophen-5-yl)methoxy)phenyl)pent-3-yn-1-yl)-1H-tetrazole]: the EC50 amounted to 1120 nM.
